{"source": "paper PMC8511016", "about": "“Src acts as the target of matrine to inhibit the proliferation of cancer cells by regulating phosphorylation signaling pathways” (Cell Death & Disease, 2021)", "target": "T1, Src (Homo sapiens, UniProt P12931)", "T1 construct": "recombinant GST-Src (full-length) and GST-Kinase (270–536 aa); endogenous Src in cell lysates", "T1 sequence (P12931 2-536)": "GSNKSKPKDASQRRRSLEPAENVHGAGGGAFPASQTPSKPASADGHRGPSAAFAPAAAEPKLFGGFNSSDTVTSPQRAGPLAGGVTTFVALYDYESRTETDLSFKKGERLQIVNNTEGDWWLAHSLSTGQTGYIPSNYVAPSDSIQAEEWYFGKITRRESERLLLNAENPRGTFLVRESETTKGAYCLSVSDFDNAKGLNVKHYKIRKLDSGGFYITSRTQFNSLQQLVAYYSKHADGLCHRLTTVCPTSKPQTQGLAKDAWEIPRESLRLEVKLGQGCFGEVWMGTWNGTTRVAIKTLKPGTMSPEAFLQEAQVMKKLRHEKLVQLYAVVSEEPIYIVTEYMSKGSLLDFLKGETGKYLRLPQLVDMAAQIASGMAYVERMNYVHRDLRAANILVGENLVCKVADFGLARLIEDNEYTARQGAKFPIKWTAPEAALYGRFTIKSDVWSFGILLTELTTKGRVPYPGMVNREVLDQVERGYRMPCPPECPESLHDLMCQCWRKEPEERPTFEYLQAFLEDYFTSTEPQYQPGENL", "experiment": "matrine-bead pull-down of recombinant GST-Src/GST-Kinase competed by free matrine; CETSA and DARTS in lysates; IC50 from Src kinase activity kit in SKOV3 cells ([…] ATP)", "format": "binding", "note": "pIC50: −log10 of the molar value.", "data": [{"smiles": "O=C1CCC[C@@H]2[C@H]3CCCN4CCC[C@@H](CN12)[C@@H]34", "note": "[MA, matrine]", "values": [{"measurement": "pIC50", "value": 2.13}]}]}
